Laboratory results: US20060234906A1, “Structure of a complex of retinoblastoma protein bound to e2f, and uses thereof” (priority 2002, published 2006)
Where two headings read alike, the source gives them in different places. Values belong to the molecule of their own block, whether it stands above or below them. Residues, ends and D or L forms follow the SMILES beside them. *: point of attachment. 5FAM = O=C1OC2(c3ccc(O)cc3Oc3cc(O)ccc32)c2ccc(C(=O)*)cc21

Assays:
pRb/Fl-E7 = biological target: T1, pRb/Fl-E7 (Homo sapiens, UniProt P06400); experiment: Fluorescence polarization displacement binding, Fl-E7 bound to pRb; conditions: fluoro-tagged peptide 400 nM pre-incubated with pRb 1 μM
T1 sequence (P06400 373-771 limits assumed): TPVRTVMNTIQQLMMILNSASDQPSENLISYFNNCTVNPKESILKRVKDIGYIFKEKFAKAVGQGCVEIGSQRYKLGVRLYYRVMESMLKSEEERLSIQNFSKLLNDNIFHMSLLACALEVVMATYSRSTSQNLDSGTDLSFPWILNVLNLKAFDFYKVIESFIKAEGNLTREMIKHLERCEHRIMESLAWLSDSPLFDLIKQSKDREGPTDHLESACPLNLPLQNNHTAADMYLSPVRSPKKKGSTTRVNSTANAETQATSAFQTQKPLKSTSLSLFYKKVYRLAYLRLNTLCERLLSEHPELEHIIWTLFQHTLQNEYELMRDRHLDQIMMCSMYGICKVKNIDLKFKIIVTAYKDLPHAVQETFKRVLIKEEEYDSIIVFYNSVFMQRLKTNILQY
Protocol: Fluoro-tagged peptide (400 nM) was pre-incubated with pRb (1 μM ) and unlabelled peptide added at the concentrations shown. Displacement binding curves were plotted (FIG. 4a), and were fitted to a one site competition binding model using Graphpad prism curve fitting software.

pRb = biological target: T2, pRb (Homo sapiens, UniProt P06400); experiment: Fluorescence polarization titration binding of fluoro-labelled peptides with pRb
T2 sequence (P06400 373-771 limits assumed): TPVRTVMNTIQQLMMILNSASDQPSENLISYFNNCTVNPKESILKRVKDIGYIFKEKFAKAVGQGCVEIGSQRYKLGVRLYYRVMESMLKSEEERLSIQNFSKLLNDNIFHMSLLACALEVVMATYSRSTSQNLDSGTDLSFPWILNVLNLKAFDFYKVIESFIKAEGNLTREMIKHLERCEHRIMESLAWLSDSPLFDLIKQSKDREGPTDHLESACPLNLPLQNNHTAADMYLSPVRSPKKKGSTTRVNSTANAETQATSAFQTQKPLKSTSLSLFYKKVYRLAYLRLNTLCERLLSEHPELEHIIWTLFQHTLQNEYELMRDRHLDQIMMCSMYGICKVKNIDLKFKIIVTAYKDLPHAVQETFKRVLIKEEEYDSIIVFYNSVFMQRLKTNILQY
Excerpt: Synthetic peptides were synthesised and fluoro-tagged using either N-terminal labelling with 5 carboxyfluorescein succinimidyl ester or cysteine labelling with single isomer tetramethylrhodamine-5-maleimide. […] Fluorescein fluorescence measured at λexcite=485 and λemit=520 nm
Rhodamine fluorescence measured at λexcite=545 and λemit=580 nm
Measurements were made using BMG Fluorostar plate reader fitted with polarization optic. […] Data were fitted to a one site binding model using Graphpad prism.
pRb titration curves were performed in 96-well black plates, in a total reaction volume of 100 μL. Doubling dilutions from 10 μM stock of pRb were made in binding buffer (50 mM Tris HCl, pH7.0, 100 mM NaCl, 10 mM DTT, 0.05% NP-40) and 80 μL added in triplicate to wells. 20 μL of 2 μM fluoro-peptide was added and pipetted up and down to mix. The plate was read after 1 hr incubation at room temperature.

[1] = biological target: T3, recombinant pRb A/B domains with E2F(409-426) peptide (Homo sapiens, UniProt P06400); experiment: Fluorescence polarization screen (384-well), fluorescein-E2F with pRb, screen controls; assay type: binding; conditions: 1 μM pRb, 0.4 μM fluorescein-E2F
T3 sequence (P06400 373-771 limits assumed): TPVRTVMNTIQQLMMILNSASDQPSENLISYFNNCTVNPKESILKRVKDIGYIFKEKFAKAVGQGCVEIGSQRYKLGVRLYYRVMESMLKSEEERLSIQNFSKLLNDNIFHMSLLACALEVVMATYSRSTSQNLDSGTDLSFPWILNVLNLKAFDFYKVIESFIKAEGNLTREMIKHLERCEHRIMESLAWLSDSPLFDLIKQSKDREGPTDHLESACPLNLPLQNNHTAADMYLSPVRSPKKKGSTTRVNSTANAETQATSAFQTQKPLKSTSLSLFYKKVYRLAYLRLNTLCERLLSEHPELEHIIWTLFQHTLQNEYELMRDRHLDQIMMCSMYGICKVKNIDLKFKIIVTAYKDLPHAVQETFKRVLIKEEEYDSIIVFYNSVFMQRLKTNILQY
Excerpt: Based on the crystal structure defined by the atomic co-ordinates in Annex 1, an FP screen was configured for the interaction of recombinant pRb A/B domains with E2F(409-426) peptide (see FIG. 1B). In addition, a second peptide binding site E7, see FIG. 1B), distant from the E2F binding pocket, was utilized as an internal control for non-specific inhibitors. Fluorophores in the form of fluorescein and rhodamine labelled peptides were synthesised and were used in a primary screen and hit confirmation.
The assay was optimised in 384-well black-plates (Matrix) and automated using a Beckman Fx liquid handling robot. 1 μM pRb in 50 mM Tris HCl, pH7.0, 100 mM NaCl, 10 mM DTT, 0.05% NP-40 was mixed with 40 μM compound (4% DMSO) and 0.4 μM fluorescein-E2F (final concentrations).
Polarized and depolarized signal from fluorescein-E2F with and without pRb present are shown in FIG. 5 (solid and open circles respectively). Specific disruption of binding by E2F protein and peptide are also shown. […] Addition of unlabelled-E2F at a concentration which gave 50% inhibition is clearly separated from the control populations. Hits were identified as compounds which reduced the polarization signal to less than mean-3sd of the fluorescein-E2F: pRb control.

- displacement of Fl-E7 from pRb (pRb/Fl-E7): does not displace E7
- Kd (pRb; pRb titration with fluoro-labelled peptide, one site binding model, read-out: Kd): 450 ± 70 nM
Molecule: CC[C@H](C)[C@H](NC(=O)CNC(=O)[C@H](CCC(=O)O)NC(=O)CNC(=O)[C@H](CCC(=O)O)NC(=O)[C@H](CCC(=O)O)NC(=O)[C@H](CC(C)C)NC(=O)CNC(=O)[C@H](Cc1ccccc1)NC(=O)[C@H](Cc1c[nH]cn1)NC(=O)[C@H](Cc1ccc(O)cc1)NC(=O)[C@H](CC(=O)O)NC(=O)[C@H](CC(C)C)NC(=O)c1ccc2c(c1)C(=O)OC21c2ccc(O)cc2Oc2cc(O)ccc21)C(=O)N[C@@H](CCCNC(=N)N)C(=O)N[C@@H](CC(=O)O)C(=O)N[C@@H](CC(C)C)C(=O)N[C@@H](Cc1ccccc1)C(=O)N[C@@H](CC(=O)O)C(=O)O [Fluorescein-E2F, N-terminal amide link-age 5 carboxyfluorescein-E2F409-426, 18′mer] (5FAM-LDYHFGLEEGEGIRDLFD-OH; C-terminus assumed)

Molecule: CC(C)C[C@H](NC(=O)[C@H](CCC(N)=O)NC(=O)[C@H](CCC(=O)O)NC(=O)[C@H](Cc1ccc(O)cc1)NC(=O)[C@H](CS)NC(=O)[C@H](Cc1ccc(O)cc1)NC(=O)[C@H](CC(C)C)NC(=O)[C@H](CC(=O)O)NC(=O)c1ccc2c(c1)C(=O)OC21c2ccc(O)cc2Oc2cc(O)ccc21)C(=O)N[C@@H](CC(N)=O)C(=O)O [Fluorescein-E7, N-terminal amide linkage Scarboxyfluorescein-E7, nonomer] (5FAM-DLYCYEQLN-OH; C-terminus assumed)
- Kd (pRb): 130 ± 20 nM

- displacement of Fl-E2F from pRb (screen control) [1]: completely displaces F1-E2F
B1: E2F protein: E2F protein added as screen control that specifically disrupts binding; probably E2F(243-437) (protein, UniProt Q01094 243-437, looked up, fragment)
chain: LAYVTCQDLRSIADPAEQMVMVIKAPPETQLQAVDSSENFQISLKSKQGPIDVFLCPEETVGGISPGKTPSQEVTSEEENRATDSATIVSPPPSSPPSSLTTDPSQSLLSLEQEPLLSRMGSLRAPVDEDRLSPLVAADSLLEHVREDFSGLLPEEFISLSPPHEALDYHFGLEEGEGIRDLFDCDFGDLTPLDF
